Test results as given in patent US10081602B2, “Opioid agonists and uses thereof” (Nektar Therapeutics, priority 2013, dated 2018).

Legend:
[1] = molecular target: human mu (MOR) opioid receptor (Homo sapiens (Human), UniProt P35372); experiment: Radioligand competition binding assay, mu opioid receptor; conditions: [3H]Naloxone; for inhibition at 10 µM: read-out: Mu receptor % inhibition at single concentration
Protocol: The binding affinities of certain compounds of the present invention were evaluated using radioligand binding assays in membranes prepared from CHO-K1 cells expressing recombinant human kappa (KOR) or mu (MOR) opioid receptors.
Competition binding experiments were conducted by incubating membrane protein to equilibrium in triplicate in the presence of a fixed concentration of radioligand and increasing concentrations of test compound for evaluation of binding to KOR or single concentration (10 μM) of test compound for evaluation of binding to MOR in 101 μL final volume. The radioligands used were specific for each receptor type, and the assay conditions are described in Table 1. Following incubations, the membranes were rapidly filtered through GF/B filter plate (presoaked with 0.5% polyethyleneimine), washed five times with cold 50 mM Tris-HCl, pH 7.5, and the bound radioactivity was then measured by liquid scintillation counting. Non-specific binding was measured in the presence of excess ligand; this value was subtracted from the total binding to yield the specific binding at each test concentration.
Ki (affinity of test compound) was obtained using the Cheng Prusoff correction using experimental Kd (affinity of radioligand) values that were previously determined under these assay conditions. For MOR binding, compounds were tested at one concentration, 10 μM, to evaluate its ability to inhibit specific radioligand binding. The values are expressed as percent inhibition of specific binding and greater than 50% inhibition of binding was considered to be significant.
With respect to determining MOR binding, an approach similar to one used for KOR binding was used.

[2] = test system: acetic acid-induced writhing (visceral pain) in mice; experiment: Acetic acid writhing (AAW) analgesic assay; format: in vivo
Protocol: An analgesic assay was used to determine whether a given compound can reduce and/or prevent visceral pain in mice. The assay utilizes Swiss Albino or CD-1 male mice (5-10 mice per group), each mouse being approximately 0.015-0.030 kg on the study day. Mice were treated according to standard protocols.
The animal was given an intraperitoneal (IP) injection of an irritant (acetic acid) that induces “writhing” which may include: contractions of the abdomen, twisting and turning of the trunk, arching of the back and the extension of the hindlimbs. Mice are given a single IP injection (0.1 mL/10 g bodyweight) of a 0.5% acetic acid solution. After the injection the animals were returned to their observation enclosure and their behavior was observed. Contractions were counted between 0 and 20 minutes after the injection. The animals were used once. In certain instances, the test articles were administered at multiple doses to determine a dose response curve.
Table 4 provides the results for certain compounds of the present invention that were administered subcutaneously. Table 5 provides the results for certain compounds of the present invention that were administered orally.

MOR = MOR (Homo sapiens (Human), UniProt P35372); experiment: cAMP accumulation assay in forskolin-stimulated CHO-K1 cells stably expressing MOR; format: cell-based
Protocol: Inhibition of cAMP accumulation by select compounds was measured in forskolin-stimulated CHO-K1 cells stably expressing KOR. CHO-K1 cells stably expressing KOR were harvested using Invitrogen Cell Dissociation Buffer, and then centrifuged at 1200 rpm for five minutes. The supernatant was aspirated and cells were resuspended in assay buffer to a density of 4×10^5 cells/mL. 25 μL of cells were added into a white half-area 96 well plate. Fourteen point serial dilutions of test compounds were carried out in assay buffer (PBS with 0.5 mM IBMX). Ketazocine was used as a positive control for each assay. 12.5 μL of compound was added to the cells in duplicate for each test concentration. The cells were then stimulated with 12.5 μL forskolin at a final concentration 20 μM. Cells were incubated for 45 minutes in a 37° C., 5% CO2 water jacketed incubator. CisBio HTRF cAMP assay reagent was used for cAMP quantitation. Two hours after substrate addition, signal at 665/615 nm was measured using the Perkin Elmer Victor X4 HTRF reader. Data analysis was done using GraphPad Prism, sigmoidal dose-response (variable slope) curve fitting.
Using a similar approach, inhibition of cAMP accumulation by select compounds was also determined in forskolin-simulated CHO-K1 cells stably expressing MOR (wherein for this assay a density of 8×10^5 cells/mL was used and the positive control was DAMGO). […]

## COCCOCCOCCOc1ccc2c(c1)[C@]1(C)CCN(CC3CC3)[C@H](C2=O)[C@@H]1C [Example 4, (2S,6R,11R)-3-(Cyclopropylmethyl)-8-{2-[2-(2-methoxyethoxy)ethoxy]ethoxy}-6,11-dimethyl-3,4,5,6-tetrahydro-2,6-methano-3-benzazocin-1(2H)-One]
[1]
  inhibition at 10 µM: 89.2%
[2]; oral, 200 mg/kg
  AAW % Efficacy: 3.8%
[2]; subcutaneous, 3 mg/kg
  AAW % Efficacy: 0.0%
[2]; subcutaneous, 10 mg/kg
  AAW % Efficacy: 39.7%
[2]; subcutaneous, 30 mg/kg
  AAW % Efficacy: 100.0%

## C[C@H]1[C@H]2C(=O)c3ccc(O)cc3[C@]1(C)CCN2CC1CC1 [Ketazocine, (2S,6R,11R)-3-(cyclopropylmethyl)-8-hydroxy-6,11-dimethyl-3,4,5,6-tetrahydro-2,6-methanobenzo[d]azocin-1(2H)-one, reference compound]
[1]
  inhibition at 10 µM: 99.2%
[2]; oral, 0.1 mg/kg
  AAW % Efficacy: 12.8%
[2]; oral, 1 mg/kg
  AAW % Efficacy: 34.5%
[2]; oral, 10 mg/kg
  AAW % Efficacy: 58.9%
[2]; oral, 100 mg/kg
  AAW % Efficacy: 100.0%
[2]; subcutaneous, 0.01 mg/kg
  AAW % Efficacy: 10.57%
[2]; subcutaneous, 0.1 mg/kg
  AAW % Efficacy: 50.03%
[2]; subcutaneous, 1 mg/kg
  AAW % Efficacy: 100.00%

## COCCOCCOCCOCCOCCOCCOCCNc1ccc2c(c1)[C@]1(C)CCN(CC3CC3)[C@H](C2=O)[C@@H]1C [Example 3, (2S,6R,11R)-3-(Cyclopropylmethyl)-8-(2,5,8,11,14,17,20-heptaoxadocosan-22-ylamino)-6,11-dimethyl-3,4,5,6-tetrahydro-2,6-methano-3-benzazocin-1 (2H)-One]
[1]
  inhibition at 10 µM: 80.6%

## COCCOCCOCCOCCOCCO[C@@H]1c2ccc(O)cc2[C@]2(C)CCN(CC3CC3)[C@H]1[C@@H]2C [Example 25, (1R,2S,6R,11R)-1-(2,5,8,11,14-pentaoxahexadecan-16-yloxy)-3-(cyclopropylmethyl)-6,11-dimethyl-1,2,3,4,5,6-hexahydro-2,6-methanobenzo[d]azocin-8-ol]
[1]; CHO-K1 membranes
  Ki: 3920 nM
MOR
  EC50: 1210 nM
